Laboratory results from ChEMBL document CHEMBL1158201, “Barbamide, a chlorinated metabolite with molluscicidal activity from the Caribbean cyanobacterium Lyngbya majuscula” (J Nat Prod, 1996).
In brackets after ≈: the same amount, converted by molar mass.

Key:
Type in all cases: organism-based
Conditions in all cases: in vivo
[1] = Ichthyotoxicity in Carassius auratus
Biomphalaria glabrata = experiment: Molluscicidal activity against Biomphalaria glabrata after 24 hrs
[2] = Toxicity in Artemia salina

C=C1CC(=O)N[C@@H](C)C(=O)N(C)[C@@H](C(C)C)C(=O)NCC(=O)O[C@@H](/C(C)=C/C(C)=C/C(C)(C)C)[C@@H]1C [ANTILLATOXIN]
LC50 [1]: 0.05 µg/mL (≈ 0.0993 µM)

CO/C(=C/C(=O)N(C)C(Cc1ccccc1)c1nccs1)CC(C)C(Cl)(Cl)Cl (centres undefined) [BARBAMIDE]
LC100 (Biomphalaria glabrata): 100 µg/mL

C=CC[C@@H](CC/C(C)=C/C=C/CC/C=C\[C@@H]1CSC([C@@H]2C[C@@H]2C)=N1)OC [CURACIN A]
LC50 [2]: 0.0025 µg/mL (≈ 0.00669 µM)

C=C(CCNC(=O)CC/C=C/C[C@H](CCCCCCC)OC)[C@@]12O[C@@H]1CC=C(C)C2=O [MALYNGAMIDE H]
LC50 [1]: 5 µg/mL (≈ 11.6 µM)
